# Results as given in the METLIN SMRT retention time set (Domingo-Almenara et al. 2019).
# Assay: gradient 5% acetonitrile 3 min, to 50% in 2 min, to 85% in 15 min, held 3 min, 100 µL/min
# Conditions: column: Zorbax Extend-C18 2.1 x 50 mm; eluents: water / acetonitrile, 0.1% formic acid
# Summary of the method: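 Data were gathered over 3 months by HPLC coupled to a quadrupole time-of-flight mass spectrometer, operated in positive and negative ionization mode. Mixtures of ~100 pure standards ran on a Zorbax Extend-C18 column (2.1 × 50 mm, 1.8 μm) at 100 μL/min, with water and acetonitrile each containing 0.1% formic acid and dead and dwell volumes of 40 μL and 900 μL. Retention time was read from adduct peaks picked by computer and checked manually.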
row,RP-LC retention time,SMILES
1,980 s,Cc1cccc(-c2noc(C3CC(=O)N(c4ccc5c(c4)OCCO5)C3)n2)c1 (stereo not given)
2,671 s,Cc1ccc(Nc2cc(-n3ccnc3)ncn2)cc1C
3,823 s,Cc1nc(-c2csc(S(=O)(=O)N3CCC(C(=O)NCc4cccs4)CC3)c2)no1
4,894 s,Cc1cc(C)nc(SCc2ccc(C(=O)NCCc3c[nH]c4ccccc34)o2)n1
5,1190 s,Cc1cc(Cl)ccc1OCC(=O)Nc1nc(-c2ccc(F)cc2)cs1
6,609 s,Cc1noc(C2(NC(=O)/C=C/c3cccnc3)CCCCC2)n1
7,886 s,COc1ccc(-c2nc3cnccn3c2Nc2ccccc2C)cc1
8,762 s,COC(=O)c1ccc2c(=O)n(-c3ccc(F)c(Cl)c3)c(N3CCN(c4ccccn4)CC3)nc2c1
9,952 s,CCCN1C(=O)C(NC(=O)c2ccc(F)cc2)(C(F)(F)F)C2=C1CC(C)(C)CC2=O (stereo not given)
10,951 s,Cc1ccccc1NC(=O)C1CCN(S(=O)(=O)c2ccc3c(c2)sc(=O)n3C(C)C)CC1
11,1020 s,O=c1n(Cc2ccc(F)cc2Cl)nc2c(S(=O)(=O)N3CCCC3)cccn12
12,651 s,Nc1nc(N2CCC3(CC2)OCCO3)ncc1C(=O)NCc1ccccc1F
13,736 s,COc1ccc(CC(=O)NCC2(c3cccs3)CC2)cc1OC
14,770 s,CCOc1cccc(CN2C[C@@H]3C(=O)N(Cc4ccc5c(c4)OCO5)C(=O)[C@@H]3C2)c1
15,808 s,CN(C)C(=O)c1cn(-c2ccc(-c3nc(C(C)(C)C)no3)cn2)cn1
16,612 s,O=C(CN1C[C@H]2C[C@H](C1)[C@H]1CCCC(=O)N1C2)NCC1CCCCC1
17,710 s,COc1ccccc1-c1cc(C(F)(F)F)n2ncc(C(=O)OCCN3CCOCC3)c2n1
18,713 s,COCCCNC(=O)c1sc2ncn(CC(=O)N3CC(C)CC(C)C3)c(=O)c2c1C (stereo not given)
19,856 s,CCC(CC)c1nnc(NC(=O)C2CC(=O)N(CCc3c[nH]c4ccc(C)cc34)C2)s1 (stereo not given)
20,916 s,Cc1nc(-c2ccccc2OC2CN(S(=O)(=O)Cc3ccccc3)C2)no1
21,867 s,Cc1ccccc1NC(=O)C1CCN(S(C)(=O)=O)c2ccccc2O1 (stereo not given)

row,RP-LC retention time,SMILES
1,811 s,COc1cccc(CNC(=O)C2=C3CCCN3c3ccccc3S2(=O)=O)c1
2,636 s,COCCNC(=O)c1cc(C)nc2ccc(Br)cc12
3,990 s,CC(=O)Nc1ccc(S(=O)(=O)N2CCCC2c2nc(-c3ccc(F)cc3)no2)cc1Cl (stereo not given)
4,769 s,COc1ccc(C(=O)Nc2cccn3c(C4CCC4)nnc23)cc1F
5,860 s,CCN1C(=O)COc2ccc(-c3noc(CNS(=O)(=O)c4ccc(F)cc4)n3)cc21
6,986 s,CS(=O)(=O)N1CCC(C(=O)Nc2ccc(F)c(Cl)c2)Oc2ccccc21 (stereo not given)
7,1000 s,COc1cc(NC(=O)CN2C(=O)CC(c3ccc(Cl)cc3)=Nc3cccnc32)cc(OC)c1
8,732 s,Cc1noc([C@@H]2CN(S(=O)(=O)c3ccc(Cl)s3)C[C@H]2C(N)=O)n1
9,1080 s,CCc1ccc(Oc2cc(N3CCC(C(=O)NCCCc4ccccc4)CC3)ncn2)cc1
10,640 s,CN(C)S(=O)(=O)c1ccc2c(c1)N(CC(=O)N1CCN(c3ccccn3)CC1)CCS2
11,1230 s,CCCCN(CC)S(=O)(=O)c1ccc(C(=O)Nc2nc3c(s2)COc2ccccc2-3)cc1
12,786 s,Cc1ccc(C2NC(=O)N(CC(=O)Nc3ccccc3F)C3=C2C(=O)OC3)cc1 (stereo not given)
13,580 s,CCCn1cnnc1C1CCCCN1S(=O)(=O)c1cccnc1 (stereo not given)
14,882 s,COc1ccc(OC)c(CC2C(=O)Nc3c(C)cccc32)c1 (stereo not given)
15,651 s,CCOc1ccc(CCNC(=O)c2c(C)oc3c2C2=NCCN2C=N3)cc1OCC
16,705 s,Cn1c(=O)n(C)c2cc(N3CCOCC3)c(NC(=O)NCc3cccc(F)c3)cc21
17,1060 s,COC(=O)c1[nH]c(C)c(CN(C(=O)C2CCCCC2)C2CCCC2)c1C
18,999 s,COCCN(CC(=O)N1CCc2sccc2C1COc1cccc(F)c1)C(=O)C1CCCC1 (stereo not given)
19,968 s,COc1cccc(-c2ccc(=O)n(Cc3nc(-c4ccccc4)no3)n2)c1
20,778 s,Cc1ccc(NC(=O)NC2CCN(c3ccc(F)cc3)C2=O)c(C)c1 (stereo not given)
21,884 s,COc1ccccc1CC(=O)N1CCC2(CC1)N=C(c1ccc(Cl)cc1)NO2

row,RP-LC retention time,SMILES
1,759 s,Cc1nc(CC(=O)Nc2ccc(F)c(Cl)c2)sc1C(=O)NC1CC1
2,829 s,O=C(C1=NN(c2ccc(F)cc2)c2ccc(F)cc2S1(=O)=O)N1CCOCC1
3,852 s,CCOc1cccc(CN2CCc3nc(N4CCN(c5ccccc5F)CC4)ncc3C2)c1
4,601 s,CN(C)C[C@@H]1CN(c2ncccn2)C[C@H]1NS(=O)(=O)Cc1ccccc1
5,809 s,O=C(NC1CCc2ccccc21)C1CCN(C(=O)c2ncn3c2COC(c2ccccc2)C3)CC1 (stereo not given)
6,556 s,CCNc1cc(N2CCCC(CCC(=O)N(C)CCc3ccccn3)C2)ncn1 (stereo not given)
7,744 s,COc1ccc(NC(=O)C2c3cc(OC)c(OC)cc3C(=O)N3CCc4ccccc4C23)cc1OC (stereo not given)
8,641 s,COCC(C)(O)CNS(=O)(=O)Cc1cccc(F)c1 (stereo not given)
9,776 s,CCCNC(=O)N1CCCN(C2=NS(=O)(=O)C(c3ccc(C)cc3)=C2C)CC1
10,774 s,COC(=O)c1c(C)[nH]c(C(=O)N2CCC(CC(=O)NCc3ccc(SC)cc3)CC2)c1C
11,1120 s,O=C(c1ccsc1)N1CC(Oc2ccc(-c3nc(-c4ccccc4)no3)cc2)C1
12,835 s,COc1ccc(OC)c(NC(=O)N2CCN(c3ccc(=O)n(-c4ccc(C)cc4)n3)CC2)c1
13,978 s,COC(=O)c1ccc(CSc2nnc(NC(=O)C3(c4cccs4)CCCC3)s2)o1
14,643 s,O=C(Cn1c(=O)c(=O)n(Cc2ccccc2)c2ncccc21)NCc1ccccn1
15,1100 s,O=S(=O)(c1ccc(-c2noc(-c3ccccc3F)n2)cc1)N1CCCC1
16,907 s,CCN(C(=O)Cc1c(C(=O)O)c(C)cn1CC)c1ccccc1
17,936 s,Cc1[nH]c2ccc(-c3nnc(SC(C)C(=O)Nc4ccc5c(c4)OCCO5)o3)cc2c1C (stereo not given)
18,569 s,CO[C@H]1C(=O)N(C2CCN(S(=O)(=O)C(C)C)CC2)[C@H]1c1ccncc1
19,674 s,O=C1NCCOCCN(C(=O)c2nccc3ccccc23)[C@H]2CCC[C@@H]12
20,781 s,Cc1noc(-c2ccc(OC3CN(C(=O)c4ccoc4)C3)cc2)n1
21,706 s,CCCOc1nccnc1NC1CCN(C(=O)c2ccnn2C)CC1

row,SMILES,RP-LC retention time
1,O=C(c1ccc(N2C[C@H]3C[C@H](C2)[C@H]2CCCC(=O)N2C3)nc1)N1CCC2(CC1)OCCO2,584 s
2,COc1ccc2c(c1)C1(CCN(C(=O)Nc3ccccc3C)C1)C(=O)N2C (stereo not given),750 s
